Laboratory results published in patent publication US20210386068A1, “COMPOSITIONS COMPRISING PYRIDINE CARBOXYLATE HERBICIDES AND VERY LONG CHAIN FATTY ACID (VLCFA) SYNTHESIS INHIBITOR HERBICIDES” (priority 2018, published 2021).

Assays:
[1] = system: Amaranthus retroflexus (pigweed, AMARE); assay: Greenhouse postemergence herbicidal effect, visual injury 20-22 d after spraying, pigweed (AMARE); assay type: in vivo
Excerpt: (§1) Seeds of the desired test plant species were planted in a 90:10% v/v (volume/volume) mixture of PRO-MIX® BX (Premier Tech Horticulture, Quakertown, Pa., USA) and PROFILE® GREENS GRADE™ (Profile Products LLC, Buffalo Grove, Ill., USA) planting mixture, which typically has a pH of 5.2 to 6.2 and an organic matter content of at least 50 percent, in plastic pots with a surface area of 103.2 square centimeters (cm^2). In some aspects, to ensure good germination and healthy plants, a fungicide treatment and/or other chemical or physical treatment was applied. The plants were grown for 7-36 days (d) in a greenhouse with an approximate 14-hour (h) photoperiod which was maintained at about 23° C. during the day and 22° C. during the night. Nutrients and water were added on a regular basis and supplemental lighting was provided with overhead metal halide 1000-Watt lamps as necessary. The plants were employed for testing when they reached the second or third true leaf stage.
(§2) Emulsifiable concentrates of each of each pyridine carboxylate herbicide (Compound A or Compound B) were prepared at 100 grams acid equivalent per liter (g ae/L). The emulsifiable concentrates also included a safener, cloquintocet-mexyl, at 120 grams active ingredient per liter (g ai/L). An aliquot of each emulsifiable concentrate was placed in a 25 mL glass vial and diluted with an aqueous mixture of 1.25% (v/v) ACTIROB® B esterified rapeseed oil (Bayer Crop Science, Research Triangle Park, N.C., USA) or MSO® Concentrate with LECI-TECH® methylated soybean oil (Loveland Products, Loveland, Colo., USA) to obtain concentrated stock solutions at the highest application rate for each herbicide, based upon a 12 milliliter (mL) application volume at a rate of 187 liters per hectare (L/ha). The concentrated stock solutions were further diluted with an aqueous mixture of 1.25% v/v ACTIROB® B or MSO® Concentrate with LECI-TECH® to obtain stock solutions at reduced application rates for each herbicide. Spray solutions of the herbicide combinations (Compound A or Compound B plus VLCFA synthesis inhibitor herbicide) were prepared by adding weighed amounts or aliquots of the VLCFA synthesis inhibitor herbicide to the stock solutions of Compound A or Compound B to form 12-mL spray solutions in two-way combinations.
(§3) The spray solutions were applied to the plant material with an overhead Mandel track sprayer equipped with 8002E nozzles calibrated to deliver 187 L/ha over an application area of 0.503 square meters (m^2) at a spray height of 18 inches ([…] (cm)) above the average plant canopy. Control plants were sprayed in the same manner with the solvent blank. All pyridine carboxylate herbicide (component a) application rates are given as “g ae/ha” and all VLCFA synthesis inhibitor herbicide (component b) application rates are given as “g ai/ha.”
(§4) The treated plants and control plants were placed in a greenhouse as described above and watered by sub-irrigation to prevent wash-off of the test compounds. After 20-22 d, the condition of the test plants as compared with that of the control plants was determined visually and scored on a scale of 0 to 100 percent where 0 corresponds to no injury and 100 corresponds to complete kill.

[2] = system: Sinapis arvensis (wild mustard, SINAR); assay: Greenhouse postemergence herbicidal effect, visual injury 20-22 d after spraying, wild mustard (SINAR); assay type: in vivo
Excerpt: as §1, §2, §3, §4

[3] = system: Kochia scoparia (kochia, KCHSC); assay: Greenhouse postemergence herbicidal effect, visual injury 20-22 d after spraying, kochia (KCHSC); assay type: in vivo
Excerpt: as §1, §2, §3, §4

[4] = system: Matricaria chamomilla (wild chamomile, MATCH); assay: Greenhouse postemergence herbicidal effect, visual injury 20-22 d after spraying, wild chamomile (MATCH); assay type: in vivo
Excerpt: as §1, §2, §3, §4

[5] = system: Polygonum convolvulus (wild buckwheat, POLCO); assay: Greenhouse postemergence herbicidal effect, visual injury 20-22 d after spraying, wild buckwheat (POLCO); assay type: in vivo
Excerpt: as §1, §2, §3, §4

[6] = system: Brassica napus (spring rape, BRSNN); assay: Greenhouse postemergence herbicidal effect, visual injury 20-22 d after spraying, spring rape (BRSNN); assay type: in vivo; details: Dimethenamid-P 560 g/ha alone
Excerpt: as §1, §2, §3, §4

[7] = system: Cirsium arvense (Canadian thistle, CIRAR); assay: Greenhouse postemergence herbicidal effect, visual injury 20-22 d after spraying, Canadian thistle (CIRAR); assay type: in vivo; details: for % visual injury Obs: CIRAR
Excerpt: as §1, §2, §3, §4

[8] = system: Salsola kali (Russian thistle, SASKR); assay: Greenhouse postemergence herbicidal effect, visual injury 20-22 d after spraying, Russian thistle (SASKR); assay type: in vivo
Excerpt: as §1, §2, §3, §4

[9] = system: Chenopodium album L. (common lambsquarters, CHEAL); assay: Greenhouse postemergence herbicidal effect, visual injury 20-22 d after spraying, common lambsquarters (CHEAL); assay type: in vivo; details: Dimethenamid-P 560 g/ha alone
Excerpt: as §1, §2, §3, §4

[10] = system: Abutilon theophrasti (velvetleaf, ABUTH); assay: Greenhouse postemergence herbicidal effect, visual injury 20-22 d after spraying, velvetleaf (ABUTH); assay type: in vivo; details: Flufenacet 60 g/ha alone
Excerpt: as §1
(§5) Emulsifiable concentrates of each of each pyridine carboxylate herbicide (Compound A or Compound B) were prepared at 100 grams acid equivalent per liter (g ae/L). The emulsifiable concentrates also included a safener, cloquintocet-mexyl, at 120 grams active ingredient per liter (g ai/L). […]
as §4

[11] = system: Ipomoea hederacea (ivyleaf morningglory, IPOHE); assay: Greenhouse postemergence herbicidal effect, visual injury 20-22 d after spraying, ivyleaf morningglory (IPOHE); assay type: in vivo; details: Flufenacet 60 g/ha alone
Excerpt: as §1, §5, §4

[12] = system: Helianthus annuus (common sunflower, HELAN); assay: Greenhouse postemergence herbicidal effect, visual injury 20-22 d after spraying, common sunflower (HELAN); assay type: in vivo; details: Flufenacet 60 g/ha alone
Excerpt: as §1, §5, §4

[13] = system: Viola tricolor (wild pansy, VIOTR); assay: Greenhouse postemergence herbicidal effect, visual injury 20-22 d after spraying, wild pansy (VIOTR); assay type: in vivo
Excerpt: as §1, §2, §3, §4

[14] = system: Triticum aestivum (spring wheat, TRZAS); assay: Greenhouse postemergence crop phytotoxicity, visual injury 20-22 d after spraying, spring wheat (TRZAS); assay type: in vivo; details: Anilofos or Pretilachlor 300 g/ha
Excerpt: as §1, §2, §3, §4

[15] = system: Matricaria inodora (scentless chamomile, MATIN); assay: Greenhouse postemergence herbicidal effect, visual injury 20-22 d after spraying, scentless chamomile (MATIN); assay type: in vivo; details: Anilofos or Pretilachlor 300 g/ha
Excerpt: as §1, §2, §3, §4

[16] = system: Papaver rhoeas (common poppy, PAPRH); assay: Greenhouse postemergence herbicidal effect, visual injury 20-22 d after spraying, common poppy (PAPRH); assay type: in vivo; details: Anilofos or Pretilachlor 300 g/ha
Excerpt: as §1, §2, §3, §4

[17] = system: Veronica hederifolia (ivy-leaved speedwell, VERHE); assay: Greenhouse postemergence herbicidal effect, visual injury 20-22 d after spraying, ivy-leaved speedwell (VERHE); assay type: in vivo; details: Anilofos or Pretilachlor 300 g/ha
Excerpt: as §1, §2, §3, §4

[18] = system: Veronica persica (Persian speedwell, VERPE); assay: Greenhouse postemergence herbicidal effect, visual injury 20-22 d after spraying, Persian speedwell (VERPE); assay type: in vivo; details: Anilofos or Pretilachlor 300 g/ha
Excerpt: as §1, §2, §3, §4

winter wheat (TRZAW) = assay: Greenhouse postemergence crop phytotoxicity, visual injury 20-22 d after spraying, winter wheat (TRZAW); assay type: in vivo, Triticum aestivum; details: Anilofos or Pretilachlor 300 g/ha
Excerpt: as §1, §2, §3, §4

winter barley (HORVW) = assay: Greenhouse postemergence crop phytotoxicity, visual injury 20-22 d after spraying, winter barley (HORVW); assay type: in vivo, Hordeum vulgare; details: Anilofos or Pretilachlor 300 g/ha
Excerpt: as §1, §2, §3, §4

[19] = system: Hordeum vulgare (spring barley, HORVS); assay: Greenhouse postemergence crop phytotoxicity, visual injury 20-22 d after spraying, spring barley (HORVS); assay type: in vivo; details: Anilofos or Pretilachlor 300 g/ha
Excerpt: as §1, §2, §3, §4

[20] = system: Lamium purpureum (purple deadnettle, LAMPU); assay: Greenhouse postemergence herbicidal effect, visual injury 20-22 d after spraying, purple deadnettle (LAMPU); assay type: in vivo; details: Anilofos or Pretilachlor 300 g/ha
Excerpt: as §1, §2, §3, §4

[21] = system: Matricaria discoidea (pineapple weed, MATMT); assay: Greenhouse postemergence herbicidal effect, visual injury 20-22 d after spraying, pineapple weed (MATMT); assay type: in vivo; details: Anilofos or Pretilachlor 300 g/ha
Excerpt: as §1, §2, §3, §4

[22] = system: Stellaria media (common chickweed, STEME); assay: Greenhouse postemergence herbicidal effect, visual injury 20-22 d after spraying, common chickweed (STEME); assay type: in vivo; details: Anilofos or Pretilachlor 300 g/ha
Excerpt: as §1, §2, §3, §4

[23] = system: Cyanus segetum (cornflower, CENCY); assay: Greenhouse postemergence herbicidal effect, visual injury 20-22 d after spraying, cornflower (CENCY); assay type: in vivo; details: Anilofos or Pretilachlor 300 g/ha
Excerpt: as §1, §2, §3, §4

[24] = system: Capsella bursa-pastoris (shepherd's purse, CAPBP); assay: Greenhouse postemergence herbicidal effect, visual injury 20-22 d after spraying, shepherd's purse (CAPBP); assay type: in vivo; details: Anilofos or Pretilachlor 300 g/ha
Excerpt: as §1, §2, §3, §4

[25] = system: Viola arvensis (field pansy, VIOAR); assay: Greenhouse postemergence herbicidal effect, visual injury 20-22 d after spraying, field pansy (VIOAR); assay type: in vivo; details: Anilofos or Pretilachlor 300 g/ha
Excerpt: as §1, §2, §3, §4

[26] = system: Brassica napus (winter rape, BRSNW); assay: Greenhouse postemergence herbicidal effect, visual injury 20-22 d after spraying, winter rape (BRSNW); assay type: in vivo; details: Anilofos or Pretilachlor 300 g/ha
Excerpt: as §1, §2, §3, §4

[27] = system: Anthemis arvensis (corn chamomile, ANTAR); assay: Greenhouse postemergence herbicidal effect, visual injury 20-22 d after spraying, corn chamomile (ANTAR); assay type: in vivo; details: Anilofos or Pretilachlor 300 g/ha
Excerpt: as §1, §2, §3, §4

[28] = Anilofos or Pretilachlor 300 g/ha

Compound: COC[C@H](C)N(C(=O)CCl)c1c(C)csc1C [Dimethenamid-P, (S)-2-chloro-N-(2,4-dimethyl-3-thienyl)-N-(2-methoxy-1-methyl-ethyl)acetamide]
- % visual injury Obs ([1]; Dimethenamid-P 560 g/ha alone): 10%
- % visual injury Obs ([2]; SINAR, Dimethenamid-P 560 g/ha alone): 0%
- % visual injury Obs ([3]; KCHSC, Dimethenamid-P 560 g/ha alone): 0%
- % visual injury Obs ([4]; MATCH, Dimethenamid-P 560 g/ha alone): 0%
- % visual injury Obs ([5]; POLCO, Dimethenamid-P 560 g/ha alone): 0%
- % visual injury Obs [6]: 0%
- % visual injury Obs ([7]; Dimethenamid-P 560 g/ha alone): 0%
- % visual injury Obs ([8]; SASKR, Dimethenamid-P 560 g/ha alone): 0%
- % visual injury Obs [9]: 0%

Compound: CC(C)N(C(=O)COc1nnc(C(F)(F)F)s1)c1ccc(F)cc1 [Flufenacet, N-(4-fluorophenyl)-N-(1-methylethyl)-2-[[5-(trifluoromethyl)-1,3,4-thiadiazol-2-yl]oxy]acetamide]
- % visual injury Obs ([1]; Flufenacet 60 g/ha alone): 5%
- % visual injury Obs [10]: 3%
- % visual injury Obs [11]: 5%
- % visual injury Obs [12]: 15%
- % visual injury Obs ([13]; VIOTR, Flufenacet 60 g/ha alone): 0%
- % visual injury Obs ([7]; Flufenacet 60 g/ha alone): 8%

Compound: CCCOCCN(C(=O)CCl)c1c(CC)cccc1CC [Pretilachlor, 2-chloro-N-(2,6-diethylphenyl)-N-(2-propoxyethyl)acetamide]
- % visual injury TRZAS Obs [14]: 0%
- % visual injury MATIN Obs [15]: 0%
- % visual injury PAPRH Obs [16]: 10%
- % visual injury SINAR Obs [2, 28]: 5%
- % visual injury VERHE Obs [17]: 5%
- % visual injury KCHSC Obs [3, 28]: 5%
- % visual injury VERVE Obs [18]: 10%
- % visual injury TRZAW Obs (winter wheat (TRZAW)): 0%
- % visual injury HORVW Obs (winter barley (HORVW)): 0%
- % visual injury HORVS Obs [19]: 0%
- % visual injury MATCH Obs [4, 28]: 20%
- % visual injury POLCO Obs [5, 28]: 8%
- % visual injury LAMPU Obs [20]: 5%
- % visual injury VIOTR Obs [13, 28]: 5%
- % visual injury CIRAR Obs [7, 28]: 5%
- % visual injury MATMT Obs [21]: 13%
- % visual injury SASKR Obs [8, 28]: 25%
- % visual injury STEME Obs [22]: 0%
- % visual injury CENCY Obs [23]: 10%
- % visual injury CAPBP Obs [24]: 0%
- % visual injury VIOAR Obs [25]: 5%
- % visual injury BRSNW Obs [26]: 5%
- % visual injury ANTAR Obs [27]: 10%
